Assay results published in article PMC6105827, “Antitrypanosomal 8-Hydroxy-Naphthyridines Are Chelators of Divalent Transition Metals” (Antimicrobial Agents and Chemotherapy, 2018).
Like-named read-outs stand apart in the source and are kept apart here.

Tests used:
[1] = tested on: L. donovani intramacrophage amastigotes; experiment: L. donovani intramacrophage compound sensitivity assay; assay type: cell-based; details: Leishmania donovani, read-out: Intra-macrophage EC50
Description: (§1) L. donovani intramacrophage ([7]), HepG2 ([55]), T. brucei ([56]), and L. donovani promastigote ([57]) compound sensitivity assays were carried out as described previously. Human HepG2 and THP-1 cells used in these assays were provided by the ATCC. Data were processed by using GRAFIT (version 5.0.4; Erithacus Software) and fitted to a 2-parameter equation to obtain the effective concentration inhibiting growth by 50% (EC50). Data are presented as the means of results from at least two independent experiments.

[2] = tested on: L. donovani promastigotes; experiment: L. donovani promastigote compound sensitivity assay (with/without metal salts)
Description: (§2) The clonal Leishmania donovani cell line LdBOB (derived from MHOM/SD/62/1S-CL2D) was grown as promastigotes at 28°C, as described previously ([53]). Bloodstream-form T. brucei MiTat 1.2 clone 221a and its derived subline, 2T1, were cultured at 37°C in the presence of 5% CO2 in HMI9-T medium, as described previously ([54]). The human carcinoma HepG2 cell line was grown at 37°C with 5% CO2 in minimal Eagle's medium (MEM) with GlutaMAX (1×; Sigma-Aldrich), nonessential amino acids (Sigma-Aldrich), and 10% FBS. Human HepG2 and THP-1 cells used in this study were ethically sourced from the ATCC.
as §1
(§3) In the first instance, the maximum tolerated concentrations of ZnCl2, CaCl2, CuCl2, MgCl2, MnCl2, and FeCl2 were determined for each cell type. […] Standard drug sensitivity assays were carried out (as described above) for each cell type with compounds 1, 2, and 3 in the presence and absence of the maximum tolerated concentration of metal salt.

[3] = tested on: T. brucei bloodstream forms; experiment: microbe, parasite or virus in culture
Description: as §2, §1, §3

[4] = tested on: THP-1 cells; experiment: THP-1 cell sensitivity; assay type: cell-based; details: Homo sapiens
Description: as §1

[5] = tested on: HepG2 cells; experiment: HepG2 compound sensitivity assay (with/without ZnCl2); details: Homo sapiens, HepG2, read-out: HepG2 EC50
Description: as §2, §1, §3

[6] = tested on: Tb927.11.15050 knockdown bloodstream trypanosomes; experiment: Drug sensitivity of Tb927.11.15050 RNAi knockdown trypanosomes; assay type: cell-based, Trypanosoma brucei; details: induced vs uninduced RNAi knockdown
Description: (§4) Stem-loop RNAi constructs were assembled as described previously ([54], [62]). PCR primers were designed by using RNAit software ([63]). For HL2 (Tb927.11.15050), primers HL2FW and HL2RV were used to generate a 533-bp gene fragment, and for HL3 (Tb927.11.1910), primers HL3FW and HL3RV were used to generate a 513-bp gene fragment. The accuracy of all assembled constructs was verified by sequencing. Assembled constructs were linearized by using AscI prior to transfection into bloodstream T. brucei 2T1 parasites ([62]). In addition to phleomycin (1 μg ml^−1), trypanosomes maintaining successfully integrated vectors were selected using hygromycin (2.5 μg ml^−1) and confirmed to be puromycin (2 μg ml^−1) resistant. To generate C-terminal 12×Myc tagging vectors for Tb927.11.15050 (Myc1) and Tb927.11.1910 (Myc2), primers Myc1FW and Myc1RV and primers Myc2FW and Myc2RV were used to generate 924-bp and 1,095-bp fragments, respectively. Fragments were inserted into the pNATx^12xMyc construct ([54]) via HindIII and XbaI restriction sites. The accuracy of the assembled constructs was verified by sequencing, and the constructs were linearized with the restriction endonuclease MfeI prior to transfection into the above-described HL2 and HL3 trypanosomes. Trypanosomes maintaining successfully integrated vectors were selected with blasticidin (1 μg ml^−1).

[7] = tested on: Tb927.11.1910 knockdown bloodstream trypanosomes; experiment: Drug sensitivity of Tb927.11.1910 RNAi knockdown trypanosomes; assay type: cell-based; details: Trypanosoma brucei, read-out: EC50, Tb927.11.1910 knockdown
Description: as §4

[8] = tested on: L. donovani promastigotes; experiment: Measurement of 8-HNT compound uptake by UPLC-MS/MS; assay type: cell-based, Leishmania donovani; details: 5 μM, 30 min
Description: Triplicate samples of the culture (2 × 10^7 cells; 1 ml) were harvested by centrifugation at 16,000 × g for 5 min. The supernatant (200 μl) was collected from each centrifuged sample, transferred to a fresh Eppendorf tube, and terminated by the addition of 400 μl acetonitrile (supernatant fraction). The remaining supernatant was discarded, and acetonitrile (60 μl) was added to each pellet fraction. Finally, 400 μl acetonitrile was added to 200 μl of culture (equivalent of 4 × 10^6 cells) (total fraction). All fractions were then centrifuged at 16,000 × g for 10 min and diluted as required with MilliQ water. All samples were analyzed in triplicate on a Waters Acquity UPLC instrument coupled to a Waters micro TQs mass spectrometer. Chromatographic separation was achieved by using a Waters BEH (bridged ethylene hybrid) C18 column (1.7-μm particle size, 2.1 by 50 mm), with a flow rate of 0.6 ml min^−1, an injection volume of 0.2 μl, and the following 2-min gradient: 95% mobile phase A initially, with holding for 0.3 min before decreasing to 5% mobile phase A over the next minute and holding for a further 0.49 min before returning to 95% mobile phase A. Mobile phase A was water plus 0.1% formic acid, and mobile phase B was methanol plus 0.1% formic acid. […]

Cc1nnc(-c2nc(NCc3ccc(Cl)cc3)c3cccnc3c2O)[nH]1 [Compound 1]
EC50 [1]: 2100 nM
EC50 ([2]; Leishmania donovani, read-out: EC50 values, WT, promastigotes, absence of cation, FeCl2 experiment): 800 ± 30 nM
EC50 ([2]; Leishmania donovani, read-out: EC50 values, WT, promastigotes, absence of cation, ZnCl2 experiment): 800 ± 10 nM
EC50 ([2]; Leishmania donovani, read-out: L. donovani pro EC50, promastigotes (Fig. 1)): 760 nM
Shift ([2]; promastigotes, FeCl2 (100 μM) vs WT): 2.0 fold
Shift ([2]; promastigotes, ZnCl2 (100 μM) vs WT): 11.0 fold
Shift ([2]; promastigotes, ZnCl2 (100 μM) vs WT, listed as compound 1): 11 fold
EC50 ([2]; read-out: EC50 values, WT, promastigotes, absence of cation, FeCl2 experiment): 780 ± 30 nM
Shift (fold) ([3]; CaCl2 (3 mM) vs WT): 1.1 fold
Shift (fold) ([3]; CuCl2 (5 μM) vs WT): 1.1 fold
Shift (fold) ([3]; FeCl2 (10 μM) vs WT): 8.0 fold
Shift (fold) ([3]; FeCl2 (10 μM) vs WT, listed as compound 1): 8 fold
Shift (fold) ([3]; MgCl2 (1 mM) vs WT): 1.1 fold
Shift (fold) ([3]; MnCl2 (10 μM) vs WT): 1.0 fold
EC50 ([3]; Trypanosoma brucei, read-out: EC50, wild-type [WT] trypanosomes): 850 ± 50 nM
EC50 ([3]; Trypanosoma brucei, read-out: Mean EC50 ± SD, Plus cation, plus CaCl2 (3 mM)): 400 ± 100 nM
EC50 ([3]; Trypanosoma brucei, read-out: Mean EC50 ± SD, Plus cation, plus CuCl2 (5 μM)): 400 ± 5 nM
EC50 ([3]; Trypanosoma brucei, read-out: Mean EC50 ± SD, Plus cation, plus MgCl2 (1 mM)): 400 ± 30 nM
EC50 ([3]; Trypanosoma brucei, read-out: Mean EC50 ± SD, Plus cation, plus MnCl2 (10 μM)): 400 ± 20 nM
EC50 ([3]; Trypanosoma brucei, read-out: Mean EC50 ± SD, WT, absence of cation, CaCl2 experiment): 300 ± 800 nM
EC50 ([3]; Trypanosoma brucei, read-out: Mean EC50 ± SD, WT, absence of cation, CuCl2 experiment): 300 ± 80 nM
EC50 ([3]; Trypanosoma brucei, read-out: Mean EC50 ± SD, WT, absence of cation, FeCl2 experiment): 220 ± 10 nM
EC50 ([3]; Trypanosoma brucei, read-out: Mean EC50 ± SD, WT, absence of cation, MgCl2 experiment): 400 ± 10 nM
EC50 ([3]; Trypanosoma brucei, read-out: Mean EC50 ± SD, WT, absence of cation, MnCl2 experiment): 400 ± 10 nM
EC50 ([3]; Trypanosoma brucei, read-out: Mean EC50 ± SD, WT, absence of cation, ZnCl2 experiment): 360 ± 90 nM
EC50 ([3]; Trypanosoma brucei, read-out: T. brucei bsf EC50, bloodstream form (Fig. 1)): 320 nM
Shift (fold) ([3]; ZnCl2 (200 μM) vs WT): 8.0 fold
Shift (fold) ([3]; ZnCl2 (200 μM) vs WT, listed as compound 1): 8 fold
EC50 ([3]; read-out: Mean EC50 ± SD, WT, absence of cation, FeCl2 experiment): 200 ± 10 nM
EC50 ([3]; read-out: Mean EC50 ± SD, WT, absence of cation, ZnCl2 experiment): 350 ± 10 nM
EC50 [4]: > 50000 nM
EC50 [5]: 10400 nM
Increase in EC50 on knockdown of Tb927.11.15050 [6]: > 3 fold
EC50 [7]: 600 ± 50 nM
Accumulation within cells relative to supernatant (equivalent Kp values) ([8]; 4°C): 29 ± 13 times
Accumulation within cells relative to supernatant (equivalent Kp values) ([8]; 37°C): 296 ± 69 times
